Data set [1] relates to aorte isolée du rat. Kind of data set: Inhibition of phenylephrine-induced contraction of isolated rat aorta. The note with it: read-out: EFFET SUR L'AORTE DE RAT I50. The class given is cell-based. An excerpt: (§1) L'inhibition des réponses contractiles maximales provoquées par la Phényléphrine ([…]) a été étudiée sur l'aorte isolée du rat préparée suivant la technique décrite par VALETTE,G. et BA MUOI, N. (Ann. Pharm. franc. 1962, 20, 557-582) et sur le segment proximal et le segment distal de l'artère caudale suivant la technique-décrite par WORCEL, M. (J. Pharmacol. Exp. Therm. 1978, 207, 210-330). Dans tous les cas, les dérivés STB se sont comportés comme de puissants antagonistes non compétitifs de la Phényléphrine. Leurs concentrations inhibitrices 50% (ID50) sont indiquées dans le tableau 2. Comme c'est le cas pour d'autres vasodilatateurs (comme l'Hydralazine), l'- artère caudale est plus sensible que l'aorte à l'effet inhibiteur des dérivés étudiés.

For data set [2], the system named is artère caudale proximale. Kind of data set: Inhibition of phenylephrine-induced contraction of isolated rat caudal artery, proximal segment. The class given is cell-based. The note with it: read-out: EFFET SUR L'ARTERE CAUDALE DE RAT I50 SEGMENT PROXIMAL
Text: as §1

In data set [3] the test system is artère caudale distale. Kind of data set: Inhibition of phenylephrine-induced contraction of isolated rat caudal artery, distal segment. The class given is cell-based. To be noted: read-out: EFFET SUR L'ARTERE CAUDALE DE RAT I50 SEGMENT DISTAL.
Text: as §1

Data set [4] relates to oreillette droite isolée de cobaye. Kind of data set: Frequency of spontaneously beating isolated guinea pig right atrium. In kind it is cell-based. The note with it: for Inhibition % du rythme de base / Inhibition % du rythme maximal en présence d'isoprotérénol: mean of 3 experiments ± erreur type; for effet sur la fréquence: result in words, comment on tableau 3. From the text: (§2) Les effets sur le rythme et sur la concentration cardiaques ont été respectivement mis en évidence sur l'oreillette droite battant spontanément et sur l'oreillette gauche stimulée électriquement, suivant la technique décrite par GROSSMANN A., FURCHGOTT R. (J. Pharmacol. Exp. Ther. 1964, 143, 107-119).

The subject of data set [5] is oreillette gauche isolée de cobaye. Kind of data set: Contractile force of electrically stimulated isolated guinea pig left atrium. The class given is cell-based. To be noted: for effet sur la force contractile: result in words, comment on tableau 3.
Text: as §2

The nature of data set [6]: Acute toxicity, DL 50 in mice (Litchfield and Wilcoxon method). The class given is in vivo, souris. To be noted: mouse, in vivo, DL 50 and its upper and lower limits for p = 0,05. As for the experimental part: (§3) La DL 50 a été déterminée chez la souris par la méthode de LITCHFIELD et WILCOXON (J. Pharmacol. 1949 96, 99-113). Les dérivés étudiés ont été administrés en solution aqueuse additionnée de 7% de diméthylformamide, gavage oesophagien de 0,4 ml/20g) à des souris mâles pesant de 20 à 25g.
(§4) C'est pourquoi, il a été comparé au STB 0 par injection intrapéritonéale (même solution et même volume injectés par voie orale).

The subject of data set [7] is effets hypertenseurs de l'adrénaline chez le chien. To be noted: Raymond Hamet 1952, 1953; cited from earlier work.
In data set [8] the test system is muscle lisse. The note with it: Raymond Hamet 1952, 1953; cited from earlier work.
Data set [9] relates to patients hypertendus. The note with it: Faquet, Lisle et Combaz 1954; cited from earlier work.
In data set [10] the test system is souris. Kind of data set: Acute toxicity, DL 50 in mice (Litchfield and Wilcoxon method). The class given is in vivo. To be noted: result in words, comment on tableau 4. As for the experimental part:
as §3, §4

A short description of data set [11]: Solubility in the dosing solution (aqueous solution with 7% dimethylformamide). The note with it: reason why oral DL 50 could not be determined; result in words. In kind it is physicochemical. Here is the method:
as §3, §4

The subject of data set [12] is rat anesthésié par l' "Inactine". Kind of data set: Cardiac output (thermodilution), arterial pressure and peripheral vascular resistance in Inactine-anaesthetised rats. The note with it: Après: 45 minutes after 15 mg.kg^-1 i.p., n=7, mean ± erreur type. Details: Volume éjection systolique: unit not given here. In kind it is in vivo. As for the experimental part: Les effets sur le débit cardiaque et la résistance vasculaire périphérique ont été mesurés chez le rat anesthésié par l' "Inactine" (70 mg.kg^-1), voie intrapéritonéale). Le débit a été mesuré par thermodilution suivant la technique décrite par HONDAS et al (Path. Biol. 1979, 17 1069-1078). La pression moyenne a été enregistrée à l'aide d'un cathéter placé dans l'artère fémorale du rat. Les mesures ont été faites avant et entre 45 et 60 minutes après l'administration intra-péritonéale des anti-hypertenseurs. Chaque chiffre expérimental représente la moyenne de trois mesures successives. Les résultats, donnés à titre d'exemple dans le tableau 1, ci-après,en ce qui concerne le STB 6, montrent que l'administration de l'anti-hypertenseur provoque une importante chute de pression artérielle imputable à une diminution marquée de la résistance vasculaire périphérique et sans variation significative du débit et du rythme cardiaques, ni du volume d'éjection systolique.

The mark [13] stands for this setting: contraction by phényléphrine 1.10^-5M, mean of at least 3 experiments ± erreur type.
[14] abbreviates: contraction by phényléphrine 1.10^-6M, mean of at least 3 experiments ± erreur type.
Where [15] appears, read: contraction by phényléphrine 5.10^-6M, mean of at least 3 experiments ± erreur type.
The mark [16] stands for this setting: Concentration 5.10^-5 mole/l, stimulated at 2,5 Hz, mean of 3 experiments ± erreur type, read-out: Variation % de la force contractile de base.
Setting [17] is: read-out: Variation % de la force contractile de base.

Where two headings read alike, the source gives them in different places.

For the molecule `c1ccc2c(c1)CC1c3ccccc3CCN1C2` (stereo not drawn) [STB0, 5,8,13,13a-tétrahydro-6H-dibenzo [a,g] quinolizine, reference compound], the IC50 stood at 13000 nM in [1] (setting [13]), 300 nM in data set [2] (setting [14]) and 1300 nM in [3] (setting [15]). In addition, in data set [4] (Concentration 5.10^-5 mole/l), the “Inhibition % du rythme de base” value is recorded as 46 ± 5%. Moreover, in [4] (Concentration 5.10^-5 mole/l), the “Inhibition % du rythme maximal en présence d'isoprotérénol” value turned out to be 38 ± 6%. The “effet sur la fréquence” value in [4] was “déprime fortement”. For the same molecule, the activation at 50 µM in [5] (setting [16]) is -47%. Besides, the “effet sur la force contractile” value in data set [5] is on record as “déprime fortement”. For the same molecule, the LD50 was determined as 464 mg/kg in data set [6] (po, per os, male mice 20 à 25g) and 262 mg/kg in [6] (ip.). Moreover, the “effets hypertenseurs de l'adrénaline” value in data set [7] is on record as “inverse les effets hypertenseurs de l'adrénaline”. Besides, the “contraction du muscle lisse provoquée par l'ion K^+” value in data set [8] is “inhibe la contraction du muscle lisse”. Besides, the action hypotensive entry in data set [9] is on record as “exerce une action hypotensive”.
Turning to `Oc1ccc2c(c1)CCN1Cc3ccccc3CC21` (stereo not drawn) [STB4, 3-hydroxy-5,8,13,13a-tétrahydro-6H-dibenzo [a, g] quinolizine], the IC50 in [1] (setting [13]) came to 26000 nM; in data set [2] (setting [14]), 1000 nM; in data set [3] (setting [15]), 1900 nM. The “Inhibition % du rythme de base” value in data set [4] (Concentration 45.10^-5 mole/l) is listed as 13,8 ± 5,8%. For the same molecule, the “Inhibition % du rythme maximal en présence d'isoprotérénol” value in data set [4] (Concentration 45.10^-5 mole/l) is listed as 28,7 ± 1,8%. Moreover, the “effet sur la fréquence” value in data set [4] is recorded as “subsistent de façon moins marquée”. Moreover, in [5] (Concentration 45.10^-5 mole/l, stimulated at 2,5 Hz, mean of 3 experiments ± erreur type), the “Variation % de la force maximale en présence d'isoprotérénol” value came to 0%. The activation at 450 µM in [5] (Concentration 45.10^-5 mole/l, stimulated at 2,5 Hz, mean of 3 experiments ± erreur type, read-out: Variation % de la force contractile de base) stood at 0%. Further, the “effet sur la force contractile” value in data set [5] is recorded as “ne diminuent pas la force contractile”. In [6] (po, per os, male mice 20 à 25g), this molecule registered a 50% lethal dose (LD50) of 464 mg/kg.
As for `COc1cc2c(cc1OC)CN1CCc3cc(OC(=O)Cc4ccccc4)ccc3C1C2` (stereo not drawn) [STB52, 3-phénacétyloxy-10,11-diméthoxy-5,8,13,13a tétrahydro-6H-dibenzo [a, g] quinolizine], the values for the IC50 in data set [1], in [2] and in data set [3] were 51000 nM, 2100 nM and 4300 nM, respectively. Besides, the “Inhibition % du rythme de base” value in data set [4] (Concentration 5.10^-6 mole/l) is listed as 14 ± 7%. For the same molecule, in data set [4] (Concentration 5.10^-6 mole/l), the “Inhibition % du rythme maximal en présence d'isoprotérénol” value is listed as 17 ± 3%. Also, in data set [4], the “effet sur la fréquence” value is reported as “subsistent de façon moins marquée”. In addition, in data set [5] (setting [17]), the activation at 5 µM came to 90%. The “effet sur la force contractile” value in [5] is on record as “augmentent fortement la force contractile”. Moreover, the LD50 in data set [6] (po, per os, male mice 20 à 25g) came out at 550 mg/kg.
With `O=C(Cc1ccccc1)Oc1ccc2c(c1)CCN1Cc3ccccc3CC21` (stereo not drawn) [STB69, 3-phénacétyloxy-5,8,13,13a-tétrahydro-6H-dibenzo-[a, g] quinolizine], the IC50 was 58000 nM in data set [1], 1500 nM in data set [2] and 3100 nM in data set [3]. The “Inhibition % du rythme de base” value in data set [4] (Concentration 5.10^-5 mole/l) worked out at 0%. In data set [4] (Concentration 5.10^-5 mole/l), the “Inhibition % du rythme maximal en présence d'isoprotérénol” value was 12,5 ± 2,7%. The “effet sur la fréquence” value in data set [4] was “pratiquement dépourvu d'action”. The activation at 50 µM in data set [5] (setting [17]) was 12.6%. In addition, the “effet sur la force contractile” value in [5] is “pratiquement dépourvu d'action”. For the same molecule, the LD50 in data set [6] (po, per os, male mice 20 à 25g) was greater than 650 mg/kg; in data set [6] (ip.), 378 mg/kg. The “toxicité aiguë, comparison” value in data set [10] is listed as “le moins toxique”. Further, in data set [11], the solubilité result is reported as “solubilité insuffisante”.
Turning to `COc1cc2c(cc1OC)CN1CCc3cc(O)ccc3C1C2` (stereo not drawn) [STB6, 3-hydroxy-10,11-diméthoxy-5,8,13,13a-tétrahydro-6H-dibenzo [a, g] quinolizine], the “Volume éjection systolique” value in data set [12] (n.s., Avant: 0,71 ± 0,04) is 0,78 ± 0,035. In data set [12] (n.s., Avant: 237,7 ± 12,9), the “débit cardiaque (DC)” value is reported as 293,9 ±18,7 n.s. ml, mn.kg^-1. Besides, the Rythme in [12] (n.s., Avant: 386 ± 11) is given as 374 ± 12 n.s. systoles/mn. Further, in data set [12] (p≤ 0,01, Avant: 150,2 ± 3,9), the “pression artérielle moyenne (PA)” value is on record as “‡‡‡ 89,1 ± 3,3 mmHg”. Further, the “résistance vasculaire périphérique totale (RVPt)” value in [12] (p≤ 0,01, Avant: 728,9 ± 29,2) was “‡‡‡ 412,2 ± 17,8 dynes.mn.cm^-5.kg^-1”. For the same molecule, the IC50 is 59000 nM in data set [1] (setting [13]), 1100 nM in data set [2] (setting [14]) and 2100 nM in data set [3] (setting [15]). The “Inhibition % du rythme de base” value in data set [4] (Concentration 5.10^-5 mole/l) was 8 ± 5%. Also, in [4] (Concentration 5.10^-5 mole/l), the “Inhibition % du rythme maximal en présence d'isoprotérénol” value was 21,6 ± 1,2%. For the same molecule, in data set [4], the “effet sur la fréquence” value is “subsistent de façon moins marquée”. In [5] (Concentration 5.10^-5 mole/l, stimulated at 2,5 Hz, mean of 3 experiments ± erreur type), the “Variation % de la force maximale en présence d'isoprotérénol” value turned out to be 0%. For the same molecule, the activation at 50 µM in [5] (setting [16]) was 32%. Moreover, the “effet sur la force contractile” value in data set [5] is reported as “augmentent fortement la force contractile”. The LD50 in [6] (po, per os, male mice 20 à 25g) was 275 mg/kg. Also, the “toxicité aiguë, comparison” value in [10] was “le plus toxique”.

As usually defined, the LD50 is the dose at which mortality reaches 50%.

Source of the values: EP0028959A1, “5,8,13,13a-Tetrahydro-6H-dibenzo(a,g)quinolizine derivatives, process for their preparation and pharmaceutical compositions containing them” (U.R.P.H.A., priority 1979, dated 1981).
